Paper PMC9952374, “De Novo Design of Imidazopyridine-Tethered Pyrazolines That Target Phosphorylation of STAT3 in Human Breast Cancer Cells” (Bioengineering, 2023)

How the values were obtained:
T47D cells = assay: Alamar Blue cell viability assay, T47D; type: cell-based, human; details: T47D cell viability, Alamar Blue
Description: (§1) The goal herein was to assess the ability of imidazopyridine-tethered pyrazolines to inhibit cell viability in mammary carcinoma cells (using the Alamar Blue assay), since pyridine-fused pyrazoles were previously shown to inhibit cell viability in various breast cancer cells. […] The low chemical stability of thio-urea-based compounds may account for the inactivity of most thiourea-conjugated pyrazolines (excluding 4g) against TNBC cells.
(§2) MCF-7 cells were procured from Procell Life Science and Technology Co. LTD, Wuhan, China. Human breast cancer T47D, BT474, and SK-BR-3 cells were obtained from American Type Culture Collection (Washington, DC, NW, USA). Cells (2000) were cultured in MEM or Leibovitz’s L-15 medium enriched with 2% FBS and maintained in a humidified atmosphere of 5% CO2 at 37 °C. A stock solution of DMSO-dissolved compounds was prepared, and this solution was diluted with culture medium as required. MCF-7 Cells (4 × 10^3) were cultured in 96-well plates for 12 h and then treated for 72 h with compounds at concentrations of […]. Using Alamar Blue, the compounds were evaluated for their inhibitory effects

MCF-7 cells = assay: Alamar Blue cell viability assay, MCF-7; type: cell-based, human; details: MCF-7 cell viability
Description: as §1, §2
Figure 2 Inhibitory effect of compounds 3f (A), 3e (B), 4g (C), and 3g (D) on the viability of MCF-7 cells. MCF-7 cells were treated with various concentrations of 2-pyrazolines for 72 h and the viability of cells was analyzed by Alamar Blue assays. The results are presented as mean ± S.E.M. of triplicate determinations.

BT-474 cells = assay: Alamar Blue cell viability assay, BT-474; type: cell-based, human; details: BT-474 cell viability, Alamar Blue
Description: as §1, §2

MCF-10A cells = assay: Alamar Blue cell viability assay, normal MCF-10A; type: cell-based; details: normal MCF-10A cell viability
SK-BR-3 cells = assay: Alamar Blue cell viability assay, SK-BR-3; type: cell-based, human; details: SK-BR-3 cell viability
Description: as §1, §2

Molecule	IC50 (T47D cells; Homo sapiens)	IC50 (MCF-7 cells; Homo sapiens, MCF7, 72 h)	IC50 (BT-474 cells; Homo sapiens)	IC50 (MCF-10A cells; Homo sapiens)	IC50 (SK-BR-3 cells; Homo sapiens)	melting point	IC50 (T47D cells)	IC50 (MCF-7 cells; 72 h)	IC50 (BT-474 cells)	IC50 (MCF-10A cells)	IC50 (SK-BR-3 cells)
Cc1ccc2nc(C)c(C3=NN(C(=O)CN4CCN(c5ccc(Cl)cc5F)CC4)C(c4cccc([N+](=O)[O-])c4)C3)n2c1 (stereo not drawn) [Compound 3g, 2-(4-(4-Chloro-2-fluorophenyl)piperazin-1-yl)-1-(3-(2,6-dimethylimidazo[1,2-a]pyridin-3-yl)-5-(3-nitrophenyl)-4,5-dihydro-1H-pyrazol-1-yl)ethanone]	86.5 ± 1.95 µM	19.4 ± 1.29 µM	63.2 ± 1.75 µM	8.69 ± 0.69 µM	100 ± 1.98 µM	196 to 198 °C	–	–	–	–	–
N-(4-Chlorophenyl)-3-(2,6-dimethylimidazo[1,2-a]pyridin-3-yl)-5-(3-nitrophenyl)-4,5-dihydro-1H-pyrazoline-1-carbothioamide [Compound 4d]	–	–	–	–	–	–	> 100 µM	> 100 µM	> 100 µM	> 100 µM	> 100 µM
Cc1ccc2nc(C)c(C3=NN(C(=O)CN4CCNCC4)C(c4cccc([N+](=O)[O-])c4)C3)n2c1 (stereo not drawn) [Compound 3c, 1-(3-(2,6-Dimethylimidazo[1,2-a]pyridin-3-yl)-5-(3-nitrophenyl)-4,5-dihydro-1H-pyrazol-1-yl)-2-(piperazin-1-yl)ethanone]	40 ± 1.49 µM	29.3 ± 1.47 µM	26.8 ± 1.37 µM	> 100 µM	95.2 ± 1.79 µM	176 to 178 °C	–	–	–	–	–
Cc1ccc2nc(C)c(C3=NN(C(=O)CN4CCN(c5ccccc5F)CC4)C(c4cccc([N+](=O)[O-])c4)C3)n2c1 (stereo not drawn) [Compound 3i, 1-(3-(2,6-Dimethylimidazo[1,2-a]pyridin-3-yl)-5-(3-nitrophenyl)-4,5-dihydro-1H-pyrazol-1-yl)-2-(4-(2-fluorophenyl)piperazin-1-yl)ethanone]	> 100 µM	63.7 ± 1.8 µM	> 100 µM	> 100 µM	> 100 µM	160 to 162 °C	–	–	–	–	–
Cc1ccc2nc(C)c(C3=NN(C(=S)Nc4ccccc4)C(c4cccc([N+](=O)[O-])c4)C3)n2c1 (stereo not drawn) [Compound 4a, 3-(2,6-Dimethylimidazo[1,2-a]pyridin-3-yl)-5-(3-nitrophenyl)-N-phenyl-4,5-dihydro-1H-pyrazoline-1-carbothioamide]	–	–	–	–	–	–	> 100 µM	81.4 ± 1.91 µM	> 100 µM	> 100 µM	> 100 µM
N-Butyl-3-(2,6-dimethylimidazo[1,2-a]pyridin-3-yl)-5-(3-nitrophenyl)-4,5-dihydro-1H-pyrazoline-1-carbothioamide [Compound 4h]	–	–	–	–	–	–	54.4 ± 1.68 µM	> 100 µM	> 100 µM	90.6 ± 1.98 µM	> 100 µM
Cc1ccc(NC(=S)N2N=C(c3c(C)nc4ccc(C)cn34)CC2c2cccc([N+](=O)[O-])c2)cc1 (stereo not drawn) [Compound 4f, 3-(2,6-Dimethylimidazo[1,2-a]pyridin-3-yl)-5-(3-nitrophenyl)-N-(p-tolyl)-4,5-dihydro-1H-pyrazoline-1-carbothioamide]	–	–	–	–	–	–	> 100 µM	56.9 ± 1.39 µM	> 100 µM	> 100 µM	> 100 µM
Cc1ccc2nc(C)c(C3=NN(C(=S)NC4CCCCC4)C(c4cccc([N+](=O)[O-])c4)C3)n2c1 (stereo not drawn) [Compound 4c, N-Cyclohexyl-3-(2,6-dimethylimidazo[1,2-a]pyridin-3-yl)-5-(3-nitrophenyl)-4,5-dihydro-1H-pyrazoline-1-carbothioamide]	–	–	–	–	–	–	> 100 µM	46.1 ± 1.66 µM	52.8 ± 1.54 µM	> 100 µM	> 100 µM
Cc1ccc2nc(C)c(C3=NN(C(=S)Nc4cccc(Cl)c4)C(c4cccc([N+](=O)[O-])c4)C3)n2c1 (stereo not drawn) [Compound 4e, N-(3-Chlorophenyl)-3-(2,6-dimethylimidazo[1,2-a]pyridin-3-yl)-5-(3-nitrophenyl)-4,5-dihydro-1H-pyrazoline-1-carbothioamide]	–	–	–	–	–	–	> 100 µM	> 100 µM	> 100 µM	> 100 µM	> 100 µM
